Assay results: PMC7070036, “An amber obligate active site-directed ligand evolution technique for phage display” (Nature Communications, 2020)
Values joined by “and” are separate entries in the source; they are usually repeats but may differ in a detail not shown here. Equal entries are not always repeated. Starred links: 1 amine or outer side, 2 acyl side, 3 side chain; linkers in the order of their positions; H or OH if unused. Non-standard residues stand in square brackets, D forms with d. Residues, ends and D or L forms follow the SMILES beside them. X1 = CCCC(=S)NCCCC[C@H](N[*:1])C(=O)[*:2]; Abu = CC[C@H](N)C(=O)O

How the values were obtained:
SIRT2 [1] = target: T1, SIRT2 (Homo sapiens, UniProt Q8IXJ6); assay: Continuous fluorogenic sirtuin inhibition assay, SIRT2 (tBuK peptides, TB); type: biochemical; conditions: for IC50: 0.25 µM SIRT2, 1 mM NAD+, 5 µM fluorogenic substrate, 15 min preincubation, n = 2, read-out: IC50; for activity at 0.0064 µM / %Activity, SIRT2 / activity at 0.032 µM / activity at 0.5 µM / activity at 1 µM / activity at 2 µM / activity at 4 µM / activity at 50 µM: single trials
T1 sequence (Q8IXJ6 1-389): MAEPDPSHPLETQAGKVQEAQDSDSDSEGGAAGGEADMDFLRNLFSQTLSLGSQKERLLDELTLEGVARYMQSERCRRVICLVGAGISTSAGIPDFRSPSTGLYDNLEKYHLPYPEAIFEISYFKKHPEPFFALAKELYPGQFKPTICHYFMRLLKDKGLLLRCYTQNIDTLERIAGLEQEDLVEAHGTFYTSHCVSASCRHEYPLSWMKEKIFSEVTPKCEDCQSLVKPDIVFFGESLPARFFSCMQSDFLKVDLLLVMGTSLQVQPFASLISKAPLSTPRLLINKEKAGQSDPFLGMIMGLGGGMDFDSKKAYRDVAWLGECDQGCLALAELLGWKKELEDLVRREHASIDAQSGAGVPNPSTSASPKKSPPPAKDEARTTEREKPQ
Description: The continuous assay for comparing isoform specificity of S2P04 was performed using the universal fluorogenic sirtuin substrate described by Schuster et al.[41]. Briefly, the inhibition reactions were performed in 50-µL volumes at 37 °C in black, half-area, 96-well plates. The sirtuin enzyme (0.25 µM) was preincubated with different concentrations of the peptide S2P04 (0.0064–50 µM for SIRT1 and SIRT2, 0.5–100 µM for SIRT3) or TB (0.16–150 µM for SIRT1–SIRT3), and 1 mM NAD^+ in assay buffer (20 mM Tris, pH 7.8, 150 mM NaCl, 5 mM MgCl2, and 1 mM DTT) for 15 min. Following incubation, the reaction started with the addition of the fluorogenic substrate (5 µM), and product formation was monitored by measuring the fluorescence intensity every 20 s for 5 min (SIRT2) or 30 min (SIRT1 and SIRT3) in a BioTek Synergy H1 microplate reader at λex = 320 nm and λem = 408 nm (gain = 130 and read height = 7 mm). Initial rates of product formation were determined by a linear regression of the plot of fluorescence intensity vs. time and normalized relative to 0% (max inhibitor) and 100% (no inhibitor) controls. The assay was repeated to determine the IC50 values of all BuK peptides for SIRT2. IC50 values were determined by nonlinear regression of the plot of the normalized initial rate vs. inhibitor concentration using GraphPad Prism. The determined IC50 values are provided in Supplementary Table 2, and inhibition curves can be seen in Supplementary Fig. 20.

SIRT2 [2] = target: T1, SIRT2; assay: SIRT2 inhibition assay for thiomyristoyl peptides; type: biochemical
Description: Assays were performed in 40-µL volumes at 37 °C in black, 384-well plates. […] Following incubation, the reaction started with the addition of the fluorogenic substrate (5 µM), and product formation was monitored by measuring the fluorescence intensity every 20 s for 5 min (SIRT2) in a BioTek Synergy H1 microplate reader at λex = 320 nm and λem = 408 nm (gain = 130 and read height = 7 mm). Initial rates were determined using the plot of fluorescence vs. time for linear portions of each curve. IC50 values were then determined using GraphPad Prism to fit a nonlinear regression to the normalized rates vs. inhibitor concentration.

Row | Compound | IC50 (SIRT2 [1]) [nM] | activity at 0.0064 µM (SIRT2 [1]; inhibitor 0.0064 µM) [%] | %Activity, SIRT2 (SIRT2 [1]; inhibitor 0.0064 µM, 0.0064 µM) | activity at 0.032 µM (SIRT2 [1]; inhibitor 0.032 µM) [%] | %Activity, SIRT2 (SIRT2 [1]; inhibitor 0.032 µM, 0.032 µM) [%] | activity at 0.5 µM (SIRT2 [1]; inhibitor 0.5 µM) [%] | %Activity, SIRT2 (SIRT2 [1]; inhibitor 0.5 µM, 0.5 µM) | activity at 1 µM (SIRT2 [1]; inhibitor 1 µM) [%] | %Activity, SIRT2 (SIRT2 [1]; inhibitor 1 µM, 1 µM) | activity at 2 µM (SIRT2 [1]; inhibitor 2 µM) [%] | %Activity, SIRT2 (SIRT2 [1]; inhibitor 2 µM, 2 µM) [%] | activity at 4 µM (SIRT2 [1]; inhibitor 4 µM) [%] | %Activity, SIRT2 (SIRT2 [1]; inhibitor 4 µM, 4 µM) | %Activity, SIRT2 (SIRT2 [1]; inhibitor 50 µM, 50 µM) | activity at 50 µM (SIRT2 [1]; inhibitor 50 µM) [%] | also measured
1 | CCCC(=S)NCCCC[C@H](NC(=O)[C@@H](NC(=O)[C@@H](NC(=O)[C@H](CS)NC(C)=O)[C@@H](C)O)C(C)C)C(=O)N[C@H](C(N)=O)[C@@H](C)CC [Ac-S2P04-5-tBu] (Ac-CTV[X1]I-NH2) | 191 ± 9 | 104 | 111.5% | 89.7 | 105.63 | 12.5 | 12.664% | 5.39 | 6.0395% | 3.09 | 4.8945 | 3.78 | 3.4595% | -0.7428% and 1.396% | – | –
2 | CCCCCCCCCCCCCC(=S)NCCCC[C@H](NC(=O)OCc1ccccc1)C(=O)Nc1ccccc1 [TM, reference compound] | – | – | – | – | – | – | – | – | – | – | – | – | – | – | – | activity at 0.000488281 µM (SIRT2 [2]; inhibitor 0.488281 nM): 101%; %Activity, SIRT2 (SIRT2 [2]; inhibitor 0.488281 nM, 0.000488281 µM): 98.9615%; activity at 0.000976562 µM (SIRT2 [2]; inhibitor 0.976562 nM): 72.4%; %Activity, SIRT2 (SIRT2 [2]; inhibitor 0.976562 nM, 0.000976562 µM): 83.3212% and 86.8904% and 88.3827%; activity at 0.00195312 µM (SIRT2 [2]; inhibitor 1.95312 nM): 90.7%; %Activity, SIRT2 (SIRT2 [2]; inhibitor 1.95312 nM, 0.00195312 µM): 86.75%; %Activity, SIRT2 (SIRT2 [2]; inhibitor 3.90625 nM, 0.00390625 µM): 101.659% and 86.3725% and 107.923%; %Activity, SIRT2 (SIRT2 [2]; inhibitor 7.8125 nM, 0.0078125 µM): 82.8428% and 60.4593% and 105.944% and 110.889%; activity at 0.015625 µM (SIRT2 [2]; inhibitor 15.625 nM): 83.3%; %Activity, SIRT2 (SIRT2 [2]; inhibitor 15.625 nM, 0.015625 µM): 84.6885%; activity at 0.0625 µM (SIRT2 [2]; inhibitor 62.5 nM): 60.2%; %Activity, SIRT2 (SIRT2 [2]; inhibitor 62.5 nM, 0.0625 µM): 43.9326%; activity at 0.125 µM (SIRT2 [2]; inhibitor 125 nM): 22.5%; %Activity, SIRT2 (SIRT2 [2]; inhibitor 125 nM, 0.125 µM): 19.1421%; activity at 0.25 µM (SIRT2 [2]; inhibitor 250 nM): 12.4%; %Activity, SIRT2 (SIRT2 [2]; inhibitor 250 nM, 0.25 µM): 20.6592%; %Activity, SIRT2 (SIRT2 [2]; inhibitor 500 nM, 0.5 µM): 1.575% and -2.11% and 0.5358%; activity at 1 µM (SIRT2 [2]; inhibitor 1000 nM): 5.56%; %Activity, SIRT2 (SIRT2 [2]; inhibitor 1000 nM, 1 µM): 5.083%
3 | CCCC(=S)NCCCC[C@H](NC(=O)[C@H](Cc1ccccc1)NC(=O)[C@@H](NC(=O)[C@@H](N)CS)[C@@H](C)O)C(=O)N[C@H](C(=O)N1CCC[C@H]1C(=O)N[C@H](C(N)=O)[C@@H](C)O)C(C)C [S2P07-tBuK] (H-CTF[X1]VPT-NH2) | 101 ± 13 | – | 98.946% and 68.389% | 87.5 | 67.907 | 9.45 | 9.1144% | 6.71 | 5.6905% | 4.93 | 4.4406 | – | 0.3859% and 2.3975% | 0.4825% and -0.01509% | – | –
4 | CCCC(=S)NCCCC[C@H](NC(=O)[C@@H](NC(=O)[C@@H](NC(=O)[C@@H](N)CS)[C@@H](C)O)C(C)C)C(=O)N[C@H](C(N)=O)[C@@H](C)CC [S2P04-5-tBuK] (H-CTV[X1]I-NH2) | 136 ± 29 | 101 | 119.97% | 87.2 | 96.038 | 8.86 | 9.5933% | 6.24 | 6.7307% | 5 | 6.0395 | – | -0.2382% and 0.3719% | 0.8865% | 1.19 | –
5 | CCCC(=S)NCCCC[C@H](NC(=O)[C@@H](NC(=O)[C@@H](NC(=O)[C@@H](N)CC)[C@@H](C)O)C(C)C)C(=O)N[C@H](C(N)=O)[C@@H](C)CC [S2P04(Abu)-5-tBuK] (H-[Abu]TV[X1]I-NH2) | 119 ± 3 | – | – | – | – | 10 | – | 6.61 | – | 4.66 | – | 3.95 | – | – | 1.5 | %Activity, SIRT2 (SIRT2 [1]; inhibitor 0.0064 µM, listed as S2P04-5-Abu-tBu, 0.0064 µM): 97.908% and 63.307%; %Activity, SIRT2 (SIRT2 [1]; inhibitor 0.032 µM, listed as S2P04-5-Abu-tBu, 0.032 µM): 79.071% and 55.539%; %Activity, SIRT2 (SIRT2 [1]; inhibitor 0.5 µM, listed as S2P04-5-Abu-tBu, 0.5 µM): 11.559%; %Activity, SIRT2 (SIRT2 [1]; inhibitor 1 µM, listed as S2P04-5-Abu-tBu, 1 µM): 4.9054%; %Activity, SIRT2 (SIRT2 [1]; inhibitor 2 µM, listed as S2P04-5-Abu-tBu, 2 µM): 4.1695%; %Activity, SIRT2 (SIRT2 [1]; inhibitor 4 µM, listed as S2P04-5-Abu-tBu, 4 µM): 3.2715%; %Activity, SIRT2 (SIRT2 [1]; inhibitor 50 µM, listed as S2P04-5-Abu-tBu, 50 µM): 1.1019%
6 | CCCC(=S)NCCCC[C@H](NC(=O)[C@@H](NC(=O)[C@@H](NC(=O)[C@@H](N)CS)[C@@H](C)O)C(C)C)C(=O)N[C@H](C(=O)N[C@@H](CO)C(=O)N[C@@H](CC(C)C)C(N)=O)[C@@H](C)O [S2P03-tBuK] (H-CTV[X1]TSL-NH2) | 68 ± 5 | 98.4 | 108.62% | 83.5 | 92.999 | – | 2.6542% and 5.9955% | – | 1.6503% and 4.1115% | 1.28 | 2.2764 | – | -0.1595% and 1.9208% | 2.8758% and -0.3176% | – | –
